Assay results: patent US20070004652A1, “Treatment of occlusive thrombosis” (Mars, Incorporated, priority 2005, published 2007)
Entries after “also recorded” stand apart in the source; their conditions may differ.

Experiments:
human endothelial cells = assay: Genomic investigation (Affymetrix microarray, Taqman validation) of gene expression of human endothelial cells; assay type: cell-based; details: human endothelial cells in vitro and human plasma
From the text: We have employed a genomic approach to comprehensively investigate the effects of (−)-epicatechin (including a mixture of (−)-epicatechin metabolites), procyanidin dimer B1, and procyanidin dimer A2 on the gene expression of human endothelial cells in vitro. Following the completion of an extensive evaluation utilizing an Affymetrix Oligonucleotide Microarray Gene Expression Analysis System, we have subsequently validated our findings using Taqman® Gene Expression Assays, and confirmed the ensuing data by directly assessing amounts or activities of the target proteins in cultured human endothelial cells and human plasma, respectively.

[1] = test system: tPA mRNA expression in human umbilical vein endothelial cells (HUVEC); assay: Taqman gene expression assay, tPA mRNA in HUVEC; assay type: cell-based; details: 5 μM, 0.5 to 24 hours, FIG. 1A
Protocol: (§1) Human umbilical vein endothelial cells (HUVEC) were cultured in an endothelium-specific, 2% serum-containing, growth factor-supplemented, antibiotic-free culture medium. Cryo-preserved cells from a single, donor in passage 1 or 2 were directly seeded into fibronectin-coated 6 well plates at a seeding density of 5000 cells/cm^2 and cultured without sub-culturing using standard cell culture conditions. 50% of the medium was replaced with fresh medium every 24 h until confluence. Cells were treated with the B1 dimer at a final concentration of μ5 M for 0.5, 2, 4, and 24 hours, respectively, and mRNA was isolated with a Qiagen mRNA Isolations System. cDNA was synthesized from mRNA samples using a HPLC-purified T7 Oligo(dT) primer and SuperScript II reverse transcriptase enzyme (Invitrogen). The ensuing cDNA samples were purified using a Qiagen PCR purification system. The cDNA templates were added to standardized Taqmang® Gene Expression Assays (Applied Biosystems) reactions mixtures and a Real-Time PCR was performed using standardized thermo-cycling conditions. An absolute quantification method of analyzing gene expression levels was used on triplicate reactions of each sample, and amplification plots generated by the Applied Biosystems 7900HT Fast Real-Time PCR System were analyzed using ABI Prism SDS v2.1 software.

[2] = test system: uPA mRNA expression in human umbilical vein endothelial cells (HUVEC); assay: Taqman gene expression assay, uPA mRNA in HUVEC; assay type: cell-based; details: 5 μM, 0.5 to 24 hours, FIG. 1B
Protocol: as §1

[3] = test system: PAI mRNA expression in human umbilical vein endothelial cells (HUVEC); assay: Taqman gene expression assay, PAI mRNA in HUVEC; assay type: cell-based; details: 5 μM, 0.5 to 24 hours, FIG. 1C
Protocol: as §1

tPA release from HUVEC = assay: tPA release from HUVEC, tPA activity in culture medium (ELISA-based assay); assay type: cell-based, human
Protocol: HUVEC cultures were established as detailed above, by seeding HUVEC into fibronectin-coated 6 well plates at a seeding density of 5000 cells/cm^2. Cells were cultured without sub-culturing using standard cell culture conditions. 50% of the medium was replaced with fresh medium every 24 h. […] The remaining medium was collected and the weight was recorded for subsequent activity calculations (for calculation purposes we assumed that 1 g of medium=1 mL). tPA and PAI release was measured as the activity of the respective proteins in the collected media using an ELISA-based assay [Innovative Research Inc., Southfield, Mich., USA] in accordance with the manufacturer's instructions.

PAI release from HUVEC = assay: PAI activity in HUVEC culture medium (ELISA-based assay); assay type: cell-based, human; details: 24 h, not quite statistically significant (P=0.061, One Way ANOVA)
Protocol: (§2) HUVEC cultures were established as detailed above, by seeding HUVEC into fibronectin-coated 6 well plates at a seeding density of 5000 cells/cm^2. Cells were cultured without sub-culturing using standard cell culture conditions. 50% of the medium was replaced with fresh medium every 24 h. Following an incubation of the HUVECs with the TC at a concentration of 5 μM for 24 h, an aliquote of the media was collected and analyzed for its content of tPA, and PAI, respectively. The remaining medium was collected and the weight was recorded for subsequent activity calculations (for calculation purposes we assumed that 1 g of medium=1 mL). tPA and PAI release was measured as the activity of the respective proteins in the collected media using an ELISA-based assay [Innovative Research Inc., Southfield, Mich., USA] in accordance with the manufacturer's instructions.

[4] = test system: total PAI in HUVEC medium; assay: Total PAI (free and tPA/uPA-bound) in HUVEC culture medium; assay type: cell-based, human; details: 24 h, 5 μM as compared to 1 μM, FIG. 3
Protocol: as §2

plasma tPA = assay: Plasma tPA activity after ingestion by human volunteers; assay type: in vivo; details: for plasma tPA activity, time course: non-transformed (raw) data
Protocol: (§3) The test compound was administered to human volunteers in accordance with IRB-approved protocols and as detailed in the previous section of this report. The activity of tPA, uPA, and PAI in plasma was measured using an ELISA-based assay [Innovative Research Inc., Southfield, Mich., USA] in accordance with the manufacturer's instructions.

plasma tPAtotal = assay: Plasma tPAtotal (free and bound tPA) after ingestion by human volunteers; assay type: in vivo; details: raw data, One Way ANOVA P=0.769
Protocol: as §3
In addition to measurements of plasma tPA activity, we determined the amount of tPAtotal in plasma (tPAtotal=free and bound tPA).

plasma uPA = assay: Plasma uPA activity after ingestion by human volunteers; assay type: in vivo; details: raw data
Protocol: as §3

plasma PAI = assay: Plasma PAI activity after ingestion by human volunteers; assay type: in vivo
Protocol: as §3

[5] = Closure time after ingestion by human volunteers; assay type: in vivo; details: FIG. 4

Structure (SMILES) | expression, secreting or activity of various proteins related to cardiovascular function (human endothelial cells) | mRNA expression for tPA [1] | mRNA expression for uPA [2] | expression of PAI mRNA [3] | increases in media-present tPA activity versus vehicle (tPA release from HUVEC; 24 h, 5 μM and 10 μM, One Way ANOVA followed by Tukey Test) | tPA activity in the cell culture medium (tPA release from HUVEC; 24 hours of incubation, different concentrations, FIG. 2) | activity of PAI in the media (PAI release from HUVEC) | total PAI (free and tPA/uPA-bound) in medium [4] | increase in tPAmax (mean maximal increase in plasma tPA activity) (plasma tPA; n=4) [%] | mean tPAmax (plasma tPA; n=4) | plasma tPA activity, time course (plasma tPA; One Way ANOVA P=0.333) | plasma tPA activity, time course (plasma tPA; One Way ANOVA P=0.333, listed as B1) | plasma tPAtotal levels, time-dependent change (plasma tPAtotal) | plasma uPA activity, time-dependent change (plasma uPA) | plasma PAI activity, time-dependent change (plasma PAI; raw data) | PAI plasma activity, normalized to individual baselines (plasma PAI; statistical significance at 4 h post-ingestion (P=0.011, t-test)) | closure time as compared to vehicle (water) [5]
Oc1cc(O)c2c(c1)O[C@H](c1ccc(O)c(O)c1)[C@H](O)C2 [(−)-epicatechin] | modulated |  |  |  |  |  |  |  |  |  |  |  |  |  |  |  | 
Oc1cc(O)c2c(c1)O[C@@]1(c3ccc(O)c(O)c3)Oc3cc(O)c4c(c3[C@@H]2[C@H]1O)O[C@H](c1ccc(O)c(O)c1)[C@H](O)C4 [A2 dimer, epicatechin-(4β→8; 2β→O→7)-epicatechin] | modulated |  |  |  |  |  |  |  |  |  |  |  |  |  |  |  | 
Oc1cc(O)c2c(c1)O[C@H](c1ccc(O)c(O)c1)[C@H](O)[C@H]2c1c(O)cc(O)c2c1O[C@H](c1ccc(O)c(O)c1)[C@@H](O)C2 [B1 dimer, procyanidin dimer B1] | modulated | time-dependent increases | time-dependent increases | decreases | significantly different from vehicle treatments | dose-dependent increase; also recorded: increase in tPA activity | dose-dependant decrease | modulate; also recorded: increase in total PAI | 46 | 261.4+/−39.4 mU/mL | time-dependent increase | increases plasma tPA activity | neither the ingestion of the B1 dimer nor that of the vehicle caused a time-dependent change | did not cause a statistically significant, time-dependant change | did not cause a statistically significant, time-dependant change | time-dependently decreased | augmentation of the closure time
